Data reported in ChEMBL document CHEMBL4321885, “Biomimetic Macrocyclic Inhibitors of Human Cathepsin D: Structure-Activity Relationship and Binding Mode Analysis” (J Med Chem, 2020).
In brackets after ≈: the same amount, converted by molar mass. Activity calls are given as the source filed them. No cut-off for these calls is given here.

Assays:
Sus scrofa = organism: Sus scrofa; assay: Inhibition of porcine pepsin at 50 nM using Abz-Lys-Pro-Ala-Glu-Phe-Nph-Ala-Leu as substrate preincubated for 10 mins followed by substrate addition and measured by FRET assay
Cathepsin D = Cathepsin D (Homo sapiens, UniProt P07339); assay: Inhibition of human placenta CatD using Abz-Lys-Pro-Ala-Glu-Phe-Nph-Ala-Leu as substrate preincubated for 10 mins followed by substrate addition and measured by FRET assay
Chain of Cathepsin D (P07339 65-162 limits assumed): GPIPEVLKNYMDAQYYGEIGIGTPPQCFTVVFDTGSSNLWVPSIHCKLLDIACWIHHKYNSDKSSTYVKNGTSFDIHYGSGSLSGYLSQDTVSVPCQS
Chain of Cathepsin D (P07339 169-412 limits assumed): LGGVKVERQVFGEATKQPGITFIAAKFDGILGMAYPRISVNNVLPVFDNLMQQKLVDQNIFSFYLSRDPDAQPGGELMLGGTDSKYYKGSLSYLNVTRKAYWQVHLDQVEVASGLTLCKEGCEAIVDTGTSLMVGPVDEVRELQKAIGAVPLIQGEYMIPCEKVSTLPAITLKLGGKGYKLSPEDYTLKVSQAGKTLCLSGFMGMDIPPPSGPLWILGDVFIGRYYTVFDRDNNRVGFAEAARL

[1] = target: Saccharopepsin (Saccharomyces cerevisiae S288c) (UniProt P07267); assay: Inhibition of Baker's yeast proteinase A at 50 nM using Abz-Lys-Pro-Ala-Glu-Phe-Nph-Ala-Leu as substrate preincubated for 10 mins followed by substrate addition and measured by FRET assay
Chain of Saccharopepsin (Saccharomyces cerevisiae S288c) (P07267 whole entry): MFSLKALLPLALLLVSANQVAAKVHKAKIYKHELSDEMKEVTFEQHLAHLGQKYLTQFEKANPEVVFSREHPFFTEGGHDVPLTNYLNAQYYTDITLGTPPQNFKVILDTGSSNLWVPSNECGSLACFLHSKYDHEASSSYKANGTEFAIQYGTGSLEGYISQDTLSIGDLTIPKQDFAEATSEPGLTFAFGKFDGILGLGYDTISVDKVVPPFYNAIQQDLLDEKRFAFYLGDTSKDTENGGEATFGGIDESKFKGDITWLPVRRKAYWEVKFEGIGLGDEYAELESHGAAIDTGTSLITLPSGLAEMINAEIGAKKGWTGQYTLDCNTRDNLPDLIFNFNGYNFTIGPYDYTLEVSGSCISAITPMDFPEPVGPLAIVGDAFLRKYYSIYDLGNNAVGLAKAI

[2] = target: Protease (Human immunodeficiency virus 1) (UniProt Q9YQ12); assay: Inhibition of HIV1 protease at 50 nM using Abz-Tyr-Ile-Nle-Nph-Gln-Arg as substrate preincubated for 10 mins followed by substrate addition and measured by FRET assay
Chain of Protease (Human immunodeficiency virus 1) (Q9YQ12 as listed by the source): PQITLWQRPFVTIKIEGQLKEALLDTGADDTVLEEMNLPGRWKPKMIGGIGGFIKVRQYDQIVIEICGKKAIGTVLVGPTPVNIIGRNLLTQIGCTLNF

Ixodes ricinus = assay: Inhibition of Ixodes ricinus CatD expressed in Escherichia coli BL21(DE3) at 50 nM using Abz-Lys-Pro-Ala-Glu-Phe-Nph-Ala-Leu as substrate preincubated for 10 mins followed by substrate addition and measured by FRET assay
[3] = target: Protease (Human immunodeficiency virus 1) (UniProt Q9YQ12); assay: Inhibition of HIV1 protease at 5 uM using Abz-Tyr-Ile-Nle-Nph-Gln-Arg as substrate preincubated for 10 mins followed by substrate addition and measured by FRET assay
Renin (Homo sapiens) [4] = target: T1, Renin (Homo sapiens) (UniProt P00797); assay: Inhibition of recombinant human N-terminal FLAG-tagged renin (67 to 406 residues) expressed in HEK cells at 50 nM using Arg-Glu(EDANS)-Ile-His-Pro-Phe-His-Leu-Val-Ile-His-Thr-Lys(Dabcyl)-Arg as substrate preincubated for 10 mins followed by substrate addition and measured by FRET assay
T1 sequence (whole entry): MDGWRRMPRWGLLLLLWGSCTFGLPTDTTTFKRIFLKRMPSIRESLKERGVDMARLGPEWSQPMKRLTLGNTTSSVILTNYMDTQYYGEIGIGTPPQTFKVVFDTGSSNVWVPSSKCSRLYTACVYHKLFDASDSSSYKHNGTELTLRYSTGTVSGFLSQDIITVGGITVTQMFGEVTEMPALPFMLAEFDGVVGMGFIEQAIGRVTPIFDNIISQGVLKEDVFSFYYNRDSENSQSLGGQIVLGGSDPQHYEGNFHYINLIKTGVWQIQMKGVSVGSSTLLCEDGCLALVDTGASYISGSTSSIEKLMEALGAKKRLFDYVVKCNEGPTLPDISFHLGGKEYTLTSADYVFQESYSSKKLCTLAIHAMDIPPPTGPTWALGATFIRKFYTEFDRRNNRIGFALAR

Renin (Homo sapiens) [5] = target: T1, Renin (Homo sapiens); assay: Inhibition of recombinant human N-terminal FLAG-tagged renin (67 to 406 residues) expressed in HEK cells at 5 uM using Arg-Glu(EDANS)-Ile-His-Pro-Phe-His-Leu-Val-Ile-His-Thr-Lys(Dabcyl)-Arg as substrate preincubated for 10 mins followed by substrate addition and measured by FRET assay
[6] = target: Beta-secretase 1 (Homo sapiens) (UniProt P56817); assay: Inhibition of recombinant human C-terminal 10His-tagged BACE1 expressed in mouse NS0 cells at 5 uM using Mca-Ser-Glu-Val-Asn-Leu-Asp-Ala-Glu-Phe-Arg-Lys(Dnp)-Arg-Arg as substrate preincubated for 10 mins followed by substrate addition and measured by FRET assay
Chain of Beta-secretase 1 (Homo sapiens) (P56817 whole entry): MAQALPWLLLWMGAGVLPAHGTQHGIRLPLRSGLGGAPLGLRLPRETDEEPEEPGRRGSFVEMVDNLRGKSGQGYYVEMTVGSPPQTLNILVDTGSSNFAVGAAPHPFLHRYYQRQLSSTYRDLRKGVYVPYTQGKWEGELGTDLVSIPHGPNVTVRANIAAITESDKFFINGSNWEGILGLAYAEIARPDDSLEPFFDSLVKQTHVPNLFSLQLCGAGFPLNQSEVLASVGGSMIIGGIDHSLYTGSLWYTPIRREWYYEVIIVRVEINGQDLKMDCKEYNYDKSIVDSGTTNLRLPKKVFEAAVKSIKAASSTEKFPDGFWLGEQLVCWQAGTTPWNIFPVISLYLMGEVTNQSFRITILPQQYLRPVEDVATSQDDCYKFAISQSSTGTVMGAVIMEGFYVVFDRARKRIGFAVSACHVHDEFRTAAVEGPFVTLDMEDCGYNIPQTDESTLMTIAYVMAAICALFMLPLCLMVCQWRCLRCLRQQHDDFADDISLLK

[7] = target: Beta-secretase 1 (Homo sapiens) (UniProt P56817); assay: Inhibition of recombinant human C-terminal 10His-tagged BACE1 expressed in mouse NS0 cells at 50 nM using Mca-Ser-Glu-Val-Asn-Leu-Asp-Ala-Glu-Phe-Arg-Lys(Dnp)-Arg-Arg as substrate preincubated for 10 mins followed by substrate addition and measured by FRET assay
[8] = Solubility of the compound in pH 7.4 phosphate buffered saline by HPLC-MS analysis; assay type: physicochemical
NHDF = assay: Cytotoxicity against NHDF cells assessed as reduction in cell viability up to 100 uM measured after 72 hrs by Celltiter-glo assay; assay type: cell-based; conditions: human
[9] = Apparent permeability in human Caco2 cells at 5 uM measured after 5 hrs by LC-MS analysis; assay type: ADME, cell-based; conditions: Caco-2
PBMC = assay: Cytotoxicity against human PBMC cells assessed as reduction in cell viability up to 100 uM measured after 72 hrs by Celltiter-glo assay; assay type: cell-based

SMILES	inhibition (Sus scrofa)	IC50 (Cathepsin D)	inhibition [1]	inhibition [2]	inhibition (Ixodes ricinus)	inhibition [3]	inhibition (Renin (Homo sapiens) [4])	inhibition (Renin (Homo sapiens) [5])	inhibition [6]	inhibition [7]	solubility [8]	Papp at 5 h, 5 µM [9]	Activity (NHDF)	Activity (PBMC)
CC(C)C[C@@H]1NC(=O)CCCCCCCCCCCNC(=O)[C@H](C(C)C)NC(=O)C[C@@H]1O	Active	22 nM	Active	inactive	Active	Active	inactive	Active	Active	inactive				
O=C1C[C@H](O)[C@H](Cc2ccccc2)NC(=O)CCCCCCCCCCCNC(=O)[C@H](c2ccccc2)N1	Active	27 nM	Active	inactive	Active	Active	inactive	Active	Active	inactive				
CC(C)CC(=O)N[C@H](C(=O)N[C@H](C(=O)N[C@@H](CC(C)C)[C@@H](O)CC(=O)N[C@@H](C)C(=O)N[C@@H](CC(C)C)[C@@H](O)CC(=O)O)C(C)C)C(C)C [PEPSTATIN]											197 µg/mL (≈ 287 µM)	0.11 ×10⁻⁶ cm/s	Non-Toxic	Non-Toxic
CC(C)[C@@H]1NC(=O)C[C@H](O)[C@H](Cc2c[nH]c3ccccc23)NC(=O)CCCCCCCCCCCNC1=O	Active	190 nM	Active	inactive	Active	Active	inactive	Active	Active	inactive				
O=C1C[C@H](O)[C@H](Cc2ccccc2)NC(=O)CCCCCCCCCCCNC(=O)[C@H](Cc2ccccc2)N1	Active	15 nM	Active	inactive	Active	Active	inactive	Active	Active	inactive				
CC(=O)NCCCC[C@@H]1NC(=O)C[C@H](O)[C@H](Cc2ccccc2)NC(=O)CCCCCCCCCCCNC1=O	Active	16 nM	Active	inactive	Active	Active	inactive	Active	Active	inactive				
CC(C)[C@@H]1NC(=O)C[C@H](O)[C@H](CS)NC(=O)CCCCCCCCCCCNC1=O		340 nM	Active	inactive	Active	Active	inactive	Active	Active	inactive				
CC(C)[C@@H]1NC(=O)C[C@H](O)[C@H](CC2CCCCC2)NC(=O)CCCCCCCCCCCNC1=O	Active	9 nM	Active	inactive	Active	Active	inactive	Active	Active	inactive				

Now from value to molecule, other results behind:

inhibition (Sus scrofa)	IC50 (Cathepsin D)	inhibition [1]	inhibition [2]	inhibition (Ixodes ricinus)	inhibition [3]	inhibition (Renin (Homo sapiens) [4])	inhibition (Renin (Homo sapiens) [5])	inhibition [6]	inhibition [7]	solubility [8]	Papp at 5 h, 5 µM [9]	SMILES	Activity (NHDF)	Activity (PBMC)
Active	3.8 nM	Active	inactive	Active	Active	inactive	Active	Active	inactive			CC[C@@H](C)[C@@H]1NC(=O)C[C@H](O)[C@H](Cc2ccccc2)NC(=O)CCCCCCCCCCCNC1=O		
Active	11 nM	Active	inactive	Active	Active	inactive	Active	Active	inactive			CC(C)[C@@H]1NC(=O)C[C@H](O)[C@H](Cc2ccccc2)NC(=O)CCCCCCCCCCCCCNC1=O		
	39 nM	Active	inactive	Active	Active	inactive	Active	Active	inactive			CC(C)[C@@H]1NC(=O)C[C@H](O)[C@H](Cc2ccc(O)cc2)NC(=O)CCCCCCCCCCCNC1=O		
	5.8 nM	Active	inactive	Active	Active	inactive	Active	Active	inactive			CC(C)[C@@H]1NC(=O)C[C@H](O)[C@H](Cc2ccccc2)NC(=O)CCCCCCCCCCCNC1=O		
	2000 nM	Active	inactive	Active	Active	inactive	Active	Active	inactive			CC(C)[C@@H]1NC(=O)CC[C@H](Cc2ccccc2)NC(=O)CCCCCCCCCCCNC1=O		
